In patent US20170312253A1 (The Third Affiliated Hospital, Third Military Medical …, priority 2014, published 2017):

Columns and labels:
[1] = test system: APPswe/PS1DE9 (AD) transgenic mice; experiment: Y-maze (spontaneous alternation and novel arm probe test); format: in vivo; conditions: AD mice vs control group
Method: APPswe/PS1DE9 (AD) transgenic mice were purchased from Jackson Laboratory, USA (No. 005864), raised in the SPF grade animal house of The Third Affiliated Hospital of The Third Military Medical University. All the processes and correlated experiments applied to the mice were approved and filed with the Animal Ethics Committee of the Third Military Medical University. […] Alternatively, the daily dose for the prophylactic group may be 6.4 mg/kg, and the daily dose for the treatment group may be 12.8 mg/kg. Administration from 3-month old to 9-month old is the prophylactic test, and administration from 9-month old to 12-month old is the therapeutic test After reaching a stated time, the mice in each group received behavioral tests according to the method in the follows. Three mice in each group were taken for Golgi staining. The remaining mice were overly anaesthetized to receive brain anatomy. One side of the cerebral hemisphere was frozen and then for a biochemical analysis, and the other side of the cerebral hemisphere was fixed with 4% paraform for a histological analysis. All the mice in each group received behavioral tests, including a water maze, Y-maze and open field test. Water maze test includes four days of platform test and the subsequent probe test. The entire process was recorded by video, and analyzed with an image analysis software (ANY-maze, Stoelting). In the platform test, the escape path length and escape latency were measured and calculated. In the probe test, the time in each quadrant and the time across platform were measured. The spontaneous alternation test and novel arm probe test were carried out in the Y-maze. In the spontaneous alternation test, the mouse was free running In the maze for 5 min. Alternation is defined as entering the three arms connected with each other continuously. […] In the open field test, the mouse was put in the center of an open field for 3 min, and its path was recorded by a tracking system (Limelight, ActiMetrics). At the same time, the numbers of rearing, grooming, defecation and urination of the mouse were recorded.

[2] = test system: Aβ deposition in the blood vessels of the brain; experiment: Cerebrovascular amyloidosis detection (double immunofluorescence 1a4/6E10); format: in vivo; conditions: AD mice
Method: (§1) APPswe/PS1DE9 (AD) transgenic mice were purchased from Jackson Laboratory, USA (No. 005864), raised in the SPF grade animal house of The Third Affiliated Hospital of The Third Military Medical University. All the processes and correlated experiments applied to the mice were approved and filed with the Animal Ethics Committee of the Third Military Medical University. […] Alternatively, the daily dose for the prophylactic group may be 6.4 mg/kg, and the daily dose for the treatment group may be 12.8 mg/kg. Administration from 3-month old to 9-month old is the prophylactic test, and administration from 9-month old to 12-month old is the therapeutic test After reaching a stated time, the mice in each group received behavioral tests according to the method in the follows. Three mice in each group were taken for Golgi staining. The remaining mice were overly anaesthetized to receive brain anatomy. One side of the cerebral hemisphere was frozen and then for a biochemical analysis, and the other side of the cerebral hemisphere was fixed with 4% paraform for a histological analysis.
A new assessment method was applied in the present research to assess the severity of the cerebrovascular amyloidosis. The blood vessels in the brain were double immunofluorescence stained with α-smooth muscle action antibody (1a4) and Aβ antibody (6E10), observed under eonfocal laser microscopy (Radiance 2000MP, Bio-Rad), and the images of the blood vessels were recorded. The severity of the CAA of each blood vessel was scored based on the following four-level scale: level 0: no Aβ deposition; level 1: little Aβ deposition, Aβ deposition occupies less than one third of the perimeter of the blood vessel; level 2: moderate Aβ deposition, Aβ deposition occupies more than one third but less than two thirds of the perimeter of the blood vessel; level 3: severe deposition, Aβ deposition occupies more than […] of the perimeter of the blood vessel.

NEP = experiment: Western blot of Aβ metabolizing enzymes in brain: NEP; format: in vivo; conditions: AD mice brain
Method: (§2) APPswe/PS1DE9 (AD) transgenic mice were purchased from Jackson Laboratory, USA (No. 005864), raised in the SPF grade animal house of The Third Affiliated Hospital of The Third Military Medical University. All the processes and correlated experiments applied to the mice were approved and filed with the Animal Ethics Committee of the Third Military Medical University. […] Alternatively, the daily dose for the prophylactic group may be 6.4 mg/kg, and the daily dose for the treatment group may be 12.8 mg/kg. […]
(§3) The enzymes related with Aβ formation and degradation their molecule levels, the levels of hyperphosphprylated Tau proteins, and the levels of synaptic plasticity correlated proteins were all detected with Western blot. […] The blotting was detected with the following antibodies: APP C terminal antibody (171610, Millipore), BACE1 antibody (Millipore), Aβ antibody (6E10, Abcam), Nepriiysin antibody (Millipore), RAGE antibody (Millipore), LRP antibody (5A6, Calbiochem), IDE antibody (epitomics), phosphorylated Tau protein antibody, including pS396 (Signalway), pT231 (Signalway), pS199 (epitomics), pS262 (Abcam), SNAP25 antibody (Millipore), Synaptophysin antibody (Millipore), Synapsin I antibody (Millipore), VAMP1 antibody (Millipore), PSD95 antibody (Millipore), F-actin antibody (Actin) (Sigma-Aldrich). […]

BACE = experiment: In vitro test of BACE expression
microglia = experiment: Microglia reaction immunostaining (CD45); format: in vivo; conditions: AD mice
Method: as §1
Immunohistochemistry in the method of bleach section was carried out according to the previous steps. The primary antibodies were rabbit-anti-mouse CD45 antibody (for labelling microglias), rabbit-anti-mouse GFAP (for labelling astrocytes) and rabbit-anti-mouse pSer396-Tau antibody, respectively. […]

[3] = test system: dendritic spines of pyramidal cells in hippocampus CA1; experiment: Golgi staining, dendritic spines; format: in vivo; conditions: AD mice
Method: as §1
After overly anesthetized, the animals received heart perfusions with normal saline containing 0.5% nitrous acid, 4% paraform, and Golgi dye liquor, successively. […]

Tau protein = experiment: Western blot of phosphorylated Tau protein; format: in vivo; conditions: AD mice
Method: as §2, §3

[4] = test system: cerebral ischemia-reperfusion injury; conditions: cited from earlier work
[5] = test system: ischemia-reperfused elderly rats; conditions: cited from earlier work

SMILES: CC1=NN(c2ccccc2)C(=O)C1 [Edaravone, 3-methyl-1-phenyl-2-pyrazolin-5-one]
- Y-maze alternation proportion [1]: also significantly increased
- Y-maze arm entry [1]: significantly higher than in the control group
- Y-maze proportion of the novel arm entry [1]: significantly increased
- proportions of the blood vessels at level 0 and level 1 CAA [2]: significantly increased
- proportions of the blood vessels at level 2 and level 3 CAA [2]: significantly reduced
- Aβ deposition in the blood vessels of the brain ([2]; Edaravone treatment group): significantly reduced
- influence on NEP (NEP): no influence
- BACE expression in vitro (BACE): inhibits the BACE expression
- microglia reaction level in the brain (microglia; p.o.): significantly reduced, too
- microglia reaction in the brain (microglia; prophylactic and therapeutic test): all reduced significantly
- numbers of the dendritic spines [3]: also significantly increased
- phosphorylation level of Tau protein (Tau protein): reduce the phosphorylation level of Tau protein at multiple pathological sites
- cerebral ischemia-reperfusion injury area ([4]; previous studies): reduce cerebral ischemia-reperfusion injury area
- gene expression of the Fas/FasL signaling pathway ([4]; transient focal ischemia in rats): suppress the gene expression of the Fas/FasL signaling pathway
- JNK-c-Jun pathway [5]: suppress the JNK-c-Jun pathway
- glutathione peroxidase activity [5]: reduce the glutathione peroxidase activity
- neuronal apoptosis [5]: decrease the neuronal apoptosis
